Assay results reported in PMC6378217, “The lysyl oxidase like 2/3 enzymatic inhibitor, PXS‐5153A, reduces crosslinks and ameliorates fibrosis” (Journal of Cellular and Molecular Medicine, 2018).

Assays:
Adrenergic α1B = Adrenergic α1B (Rattus norvegicus, UniProt P15823); experiment: Eurofins Hit Profiling Screen; format: binding; details: 10 μmol/L
LOXL2 [1] = target: T1, LOXL2 (Homo sapiens, UniProt Q9Y4K0); experiment: Time dependency of LOXL2 inhibition; format: biochemical
T1 sequence (Q9Y4K0 26-774): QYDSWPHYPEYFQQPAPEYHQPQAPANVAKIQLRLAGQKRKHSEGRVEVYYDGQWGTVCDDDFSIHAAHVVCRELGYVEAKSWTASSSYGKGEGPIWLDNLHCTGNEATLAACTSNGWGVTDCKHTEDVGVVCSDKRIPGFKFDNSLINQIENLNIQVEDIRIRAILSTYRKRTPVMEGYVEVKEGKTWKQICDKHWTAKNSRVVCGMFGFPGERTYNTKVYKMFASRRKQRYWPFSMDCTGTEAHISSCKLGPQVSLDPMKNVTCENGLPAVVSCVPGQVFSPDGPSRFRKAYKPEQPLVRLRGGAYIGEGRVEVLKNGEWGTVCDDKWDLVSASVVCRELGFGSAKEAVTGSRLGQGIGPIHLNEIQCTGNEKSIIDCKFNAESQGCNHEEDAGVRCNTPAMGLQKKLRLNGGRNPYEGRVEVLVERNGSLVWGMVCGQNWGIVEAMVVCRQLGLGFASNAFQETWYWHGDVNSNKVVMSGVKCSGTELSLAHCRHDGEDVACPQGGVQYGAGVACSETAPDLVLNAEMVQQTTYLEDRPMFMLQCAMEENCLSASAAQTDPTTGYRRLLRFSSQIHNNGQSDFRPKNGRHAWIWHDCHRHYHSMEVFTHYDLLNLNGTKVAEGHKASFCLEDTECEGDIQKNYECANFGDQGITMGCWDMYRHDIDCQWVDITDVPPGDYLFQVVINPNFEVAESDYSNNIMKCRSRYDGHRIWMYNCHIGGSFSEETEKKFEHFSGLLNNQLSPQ
Procedure: (§1) The measurement of the enzymatic activity of all lysyl oxidase family members was based on the detection of hydrogen peroxide with an Amplex-Red oxidation assay, as described in Zhou et al.[1]; miniaturised in 384 well format, with the appropriate combination of substrate and assay buffer for each individual enzyme. After a 30 minute pre-incubation of the enzyme at 37 °C with the test compound (or with different incubation times for the time-dependency assay), one volume of reaction mixture containing 120 μM Amplex Red (AR) (Life Technologies), 1.5 U/mL horseradish peroxidase (HRP) (Sigma-Aldrich) and the specific substrate was added to each sample. The relative fluorescence units (RFU) were then measured every 2.5 minutes for 30 minutes at 37°C, excitation 565 nm and emission 590, on a BMG Clariostar Microplate Reader. All the substrates were used at concentrations corresponding to their Km towards the corresponding enzyme, or with a range of different concentrations for the substrate competition experiments.
Time-dependent inhibition of the target by the compound was assessed by pre-incubation of 25 uL of target enzyme at 37 °C in a 384-well plate. An 11-point dilution was carried out of the test compound followed by its addition at 0.5 uL to the enzyme plate at different time points (0 minutes, 15 minutes, 30 minutes, 1hour, 2 hours and 4 hours unless otherwise stated in the graph). At the last time point, the reaction mixture was added and the relative fluorescence was measured.

[2] = tested on: NASH-induced liver disease; experiment: NASH-induced liver disease (streptozotocin/high fat diet, STAM); format: in vivo, C57/BL6 mice
Procedure: Pellet then underwent acid hydrolysis in 6 mol/L HCl at 100°C for 24 hours. Hydroxyproline and crosslinks were extracted from the hydrolysate using an automated solid phase extraction system (Gilson […] system). After extraction and drying, hydroxyproline and crosslinks were analysed by UHPLC-ESI-MS/MS on a Thermo Dionex UHPLC and TSQ Endura triple quad mass spectrometer. Total protein was quantified in the samples using a commercially available kit (QuickZyme Biosciences, Leiden, The Netherlands). For detailed procedures, see supporting information. The study was performed by Stelic MC, Inc. (Tokyo, Japan) with approval from local ethics committee. NASH was established in male C57/BL6 mice by a single subcutaneous injection of 200 μg streptozotocin (Sigma-Aldrich) after birth and with a high fat diet (CLEA Japan) ad libitum after 4 weeks of age (day 28 ± 2) until 14 weeks of age. Mice were orally administered with 10 mg/kg PXS-5153A once daily from 8 to 14 weeks of age. ALT levels were assessed in the plasma. One lobe of the liver tissue was fixed in 10% formalin, stained for Sirius red and the percentage coverage area was measured; HE staining was performed to estimate non-alcoholic fatty liver disease (NAFLD) activity score according to the criteria of Kleiner et al28 The remainder of the liver was snap frozen and used for protein, hydroxyproline and crosslink analysis.

Adrenergic β1 = Adrenergic β1 (Homo sapiens, UniProt P08588); experiment: Eurofins Hit Profiling Screen; format: binding; details: 10 μmol/L
Sequence of Adrenergic β1 (P08588 whole entry): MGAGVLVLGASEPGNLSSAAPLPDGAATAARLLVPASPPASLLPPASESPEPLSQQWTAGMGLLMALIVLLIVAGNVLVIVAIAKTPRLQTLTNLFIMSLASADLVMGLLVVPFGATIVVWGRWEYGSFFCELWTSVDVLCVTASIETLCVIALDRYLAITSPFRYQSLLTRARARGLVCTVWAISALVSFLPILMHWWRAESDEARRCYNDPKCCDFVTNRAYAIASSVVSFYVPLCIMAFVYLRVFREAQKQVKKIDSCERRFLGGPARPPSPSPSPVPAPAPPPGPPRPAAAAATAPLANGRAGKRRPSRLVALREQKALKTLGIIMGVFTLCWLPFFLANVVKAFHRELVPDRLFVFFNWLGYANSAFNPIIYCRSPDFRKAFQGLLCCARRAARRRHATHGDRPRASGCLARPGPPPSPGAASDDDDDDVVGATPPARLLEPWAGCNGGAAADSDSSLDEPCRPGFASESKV

LOXL2 [3] = target: T1, LOXL2; experiment: Amplex-Red fluorometric enzymatic activity assay, recombinant human LOXL2; format: biochemical; parameters: purchased R&D Systems
Procedure: The measurement of the enzymatic activity of all lysyl oxidase family members was based on the detection of hydrogen peroxide with an Amplex‐Red oxidation assay, as described in Zhou et al26 Recombinant human semicarbazide sensitive amine oxidase (SSAO/VAP1), diamine oxidase (DAO) and monoamine oxidases A and B (MAO‐A and MAO‐B) assays were performed as previously described.27 For detailed enzymatic procedures, see supporting information.
as §1
Lysyl oxidases assay buffer contained 1.2 M urea, 50 mM sodium borate buffer, pH 8.2 and 100 µM β-aminoproprionitrile (BAPN, Sigma-Aldrich) was used for low control.
Recombinant human LOXL1 was expressed and purified from cDNA (GeneArt) and 10 mM putrescine was used as substrate. Recombinant human and mouse LOXL2 (R&D Systems) were challenged with 5 mM putrescine (Sigma-Aldrich) as the substrate. Rat and dog recombinant LOXL2 were amplified and purified in house from HEK-293 clones kindly provided by Dr. Fernando Rodríguez Pascual, Madrid University, and used in the same conditions as for the human form. 2 mM putrescine was used as the substrate for recombinant human LOXL3 (R&D Systems) and LOXL4 (Dr. Fernando Rodríguez Pascual, university of Madrid, Spain) assays.

[4] = 30 minute pre-incubation at 37 °C, average of at least three experiments

Sequence of Adrenergic α1B (P15823 whole entry): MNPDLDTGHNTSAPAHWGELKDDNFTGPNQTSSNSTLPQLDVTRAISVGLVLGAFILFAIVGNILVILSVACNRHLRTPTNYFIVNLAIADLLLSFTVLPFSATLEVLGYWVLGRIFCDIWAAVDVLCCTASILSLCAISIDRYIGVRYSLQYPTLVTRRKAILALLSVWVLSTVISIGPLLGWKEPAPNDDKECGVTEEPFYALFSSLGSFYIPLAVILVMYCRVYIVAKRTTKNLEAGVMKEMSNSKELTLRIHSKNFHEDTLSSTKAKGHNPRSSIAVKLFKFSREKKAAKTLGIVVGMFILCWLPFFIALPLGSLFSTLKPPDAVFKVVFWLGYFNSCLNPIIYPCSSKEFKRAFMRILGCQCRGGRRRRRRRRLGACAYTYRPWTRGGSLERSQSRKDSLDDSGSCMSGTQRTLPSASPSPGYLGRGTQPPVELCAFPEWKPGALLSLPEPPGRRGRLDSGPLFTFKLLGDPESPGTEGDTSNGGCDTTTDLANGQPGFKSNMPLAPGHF

**Q.** Which results are given for `Cc1c(-c2cccc(S(=O)(=O)N(C)C)c2)c2ncccc2n1C/C(F)=C/CN.Cl.Cl` [PXS-5153A]?
**A.** % inhibition (Adrenergic α1B): 6%; time to complete inhibition of the enzyme (LOXL2 [1]; at 10xIC50): ≤ 15 min; time until enzymatic activity almost entirely blocked (LOXL2 [1]; judged by the shift in the concentration response curves): ≤ 15 min; time-dependent LOXL2 inhibition (LOXL2 [1]; longer incubation with the enzyme): increased potency upon longer incubation with the enzyme; DHLNL ([2]; 10 mg/kg orally once daily): significantly reduced; NASH disease score (NAFLD activity score) ([2]; 10 mg/kg orally once daily): reduction; PYD ([2]; 10 mg/kg orally once daily): significantly reduced; hepatocyte ballooning ([2]; 10 mg/kg orally once daily): significantly reduced; percentage coverage area by Picrosirius red staining ([2]; 10 mg/kg orally once daily): reduced; HYP ([2]; 10 mg/kg orally once daily from 8 to 14 weeks of age): significantly reduction; % inhibition (Adrenergic β1): 3%; IC50 (LOXL2 [3]; [4]): 21 nM; pIC50 ± SD (LOXL2 [3]; [4]): 7.7 ± 0.23; selectivity for LOXL2 over LOX (LOXL2 [3]; LOXL2 over LOX): > 40 fold; selectivity for LOXL2 over LOXL1 (LOXL2 [3]; LOXL2 over LOXL1): > 40 fold; selectivity over other related amine oxidases (LOXL2 [3]; LOXL2 over other related amine oxidases): > 700 fold; rate of inactivation (kinact) (LOXL2 [3]; mechanism-based irreversible inhibition, enzyme not given): 0.20 min⁻¹; Ki (LOXL2 [3]; mechanism-based irreversible inhibition, enzyme not given, read-out: apparent binding constant (Ki)): 1010 nM
